{"source": "ChEMBL document CHEMBL3400067", "about": "“Synthesis, antinociceptive and anti-inflammatory effects of porphyrins” (Bioorg Med Chem, 2015)", "key": {"[1]": {"test_system": "Mus musculus", "assay": "Antinociceptive activity against CD-1 mouse assessed as licking of hind paw or jumping at 100 mg/kg, po after 90 mins", "assay_type": "functional", "details": "CD-1, 1.5 h"}, "[2]": {"assay": "Antiinflammatory activity against Wistar rat erythrocytes assessed as inhibition of heat-induced hemolysis after 15 mins by membrane stabilizing activity assay", "assay_type": "functional, cell-based", "details": "erythrocyte"}, "[3]": {"test_system": "Mus musculus", "assay": "Anti-arthritic activity against carrageenan-kaolin-induced arthritis CD-1 mouse model assessed as decrease in IL-1beta level in serum at 200 mg/kg, po for 8 days relative to vehicle treated control", "assay_type": "functional"}, "[4]": {"test_system": "Mus musculus", "assay": "Antiinflammatory activity in CD-1 mouse ear edema model assessed as reduction in TPA-induced edema size at 2 mg/ear, topically administered 30 mins prior to TPA-challenge measured after 6 hrs relative to control", "assay_type": "functional"}, "[5]": {"test_system": "Mus musculus", "assay": "Anti-arthritic activity in CD-1 mouse assessed as inhibition of carrageenan-kaolin-induced arthritis at 200 mg/kg, po for 8 days relative to vehicle treated control", "assay_type": "functional", "details": "CD-1, 192 h"}, "[6]": {"test_system": "Mus musculus", "assay": "Antiinflammatory activity against carrageenan-kaolin-induced arthritis CD-1 mouse model assessed as decrease in NO level in serum at 200 mg/kg, po for 8 days relative to vehicle treated control", "assay_type": "functional", "details": "CD-1, Serum, 192 h"}, "[7]": {"test_system": "Mus musculus", "assay": "Antiinflammatory activity against carrageenan-kaolin-induced arthritis CD-1 mouse model assessed as decrease in PGE2 level in serum at 200 mg/kg, po for 8 days relative to vehicle treated control", "assay_type": "functional", "details": "CD-1, Serum, 192 h"}, "[8]": {"test_system": "Mus musculus", "assay": "Anti-arthritic activity against carrageenan-kaolin-induced arthritis CD-1 mouse model assessed as decrease in spleen index at 200 mg/kg, po for 8 days relative to vehicle treated control", "assay_type": "functional", "details": "CD-1, Spleen, 192 h"}, "[9]": {"test_system": "Mus musculus", "assay": "Anti-arthritic activity against carrageenan-kaolin-induced arthritis CD-1 mouse model assessed as decrease in IL-6 level in serum at 200 mg/kg, po for 8 days relative to vehicle treated control", "assay_type": "functional"}, "[10]": {"test_system": "Mus musculus", "assay": "Anti-arthritic activity against carrageenan-kaolin-induced arthritis CD-1 mouse model assessed as decrease in TNF-alpha level in serum at 200 mg/kg, po for 8 days relative to vehicle treated control", "assay_type": "functional"}, "[11]": {"test_system": "Mus musculus", "assay": "Antinociceptive activity in CD-1 mouse assessed as licking time during phase 1 at 50 to 200 mg/kg, po administered 1 hr prior to formalin-challenge", "assay_type": "functional, organism-based"}, "[12]": {"test_system": "Mus musculus", "assay": "Anti-arthritic activity in po dosed CD-1 mouse assessed as inhibition of carrageenan-kaolin-induced arthritis at treated for 8 days relative to vehicle treated control", "assay_type": "functional, organism-based", "details": "TDE = time-dependent effect"}, "[13]": {"test_system": "Mus musculus", "assay": "Antiinflammatory activity in CD-1 mouse ear edema model assessed as reduction in TPA-induced edema size at 200 mg/kg, po administered 30 mins prior to TPA-challenge for every 48 hrs for 10 days relative to vehicle treated control", "assay_type": "functional", "details": "CD-1, Ear"}, "[14]": {"test_system": "Mus musculus", "assay": "Antiinflammatory activity in po dosed CD-1 mouse ear edema model assessed as reduction in TPA-induced edema size administered 30 mins prior to TPA-challenge for every 48 hrs for 10 days relative to vehicle treated control", "assay_type": "functional, organism-based"}, "[15]": {"test_system": "Mus musculus", "assay": "Antiinflammatory activity in CD-1 mouse ear edema model assessed as reduction in TPA-induced edema size at 8 mg/kg, po administered 30 mins prior to TPA-challenge for every 48 hrs for 10 days relative to vehicle treated control", "assay_type": "functional", "details": "CD-1, Ear"}, "[16]": {"test_system": "Mus musculus", "assay": "Anti-arthritic activity against carrageenan-kaolin-induced arthritis CD-1 mouse model assessed as decrease in TNF-alpha level in serum at 1 mg/kg, po for 8 days relative to vehicle treated control", "assay_type": "functional"}, "[17]": {"test_system": "Mus musculus", "assay": "Anti-arthritic activity in CD-1 mouse assessed as inhibition of carrageenan-kaolin-induced arthritis at 1 mg/kg, po for 8 days relative to vehicle treated control", "assay_type": "functional", "details": "CD-1, 192 h"}, "[18]": {"test_system": "Mus musculus", "assay": "Antiinflammatory activity against carrageenan-kaolin-induced arthritis CD-1 mouse model assessed as decrease in PGE2 level in serum at 1 mg/kg, po for 8 days relative to vehicle treated control", "assay_type": "functional", "details": "CD-1, Serum, 192 h"}, "[19]": {"test_system": "Mus musculus", "assay": "Anti-arthritic activity against carrageenan-kaolin-induced arthritis CD-1 mouse model assessed as decrease in IL-6 level in serum at 1 mg/kg, po for 8 days relative to vehicle treated control", "assay_type": "functional"}, "[20]": {"test_system": "Mus musculus", "assay": "Anti-arthritic activity against carrageenan-kaolin-induced arthritis CD-1 mouse model assessed as decrease in spleen index at 1 mg/kg, po for 8 days relative to vehicle treated control", "assay_type": "functional", "details": "CD-1, Spleen, 192 h"}, "[21]": {"test_system": "Mus musculus", "assay": "Antiinflammatory activity against carrageenan-kaolin-induced arthritis CD-1 mouse model assessed as decrease in NO level in serum at 1 mg/kg, po for 8 days relative to vehicle treated control", "assay_type": "functional", "details": "CD-1, Serum, 192 h"}, "[22]": {"test_system": "Mus musculus", "assay": "Anti-arthritic activity against carrageenan-kaolin-induced arthritis CD-1 mouse model assessed as decrease in IL-1beta level in serum at 1 mg/kg, po for 8 days relative to vehicle treated control", "assay_type": "functional"}}, "note": "Activity calls are given as the source filed them. The rule behind the calls is not given here."}
{"smiles": "COc1ccc2cc([C@H](C)C(=O)O)ccc2c1", "note": "[NAPROXEN]", "values": [{"measurement": "inhibition in vivo at 100 mg/kg", "setting": "[1]", "value": 36, "unit": "%"}, {"measurement": "EC50", "setting": "[2]", "value": 756, "unit": "µM"}]}
{"smiles": "Brc1ccc(-c2c3nc(c(-c4ccc(Br)cc4)c4ccc([nH]4)c(-c4ccc(Br)cc4)c4nc(c(-c5ccc(Br)cc5)c5ccc2[nH]5)C=C4)C=C3)cc1", "values": [{"measurement": "fold change (FC)", "setting": "[3]", "value": 1.6}, {"measurement": "inhibition in vivo at 100 mg/kg", "setting": "[1]", "value": 32, "unit": "%"}, {"measurement": "inhibition (INH)", "setting": "[4]", "value": 67, "unit": "%"}, {"measurement": "EC50", "setting": "[2]", "value": 342, "unit": "µM"}, {"measurement": "inhibition in vivo at 200 mg/kg", "setting": "[5]", "value": 27, "unit": "%"}, {"measurement": "inhibition in vivo at 200 mg/kg", "setting": "[6]", "value": 36, "unit": "%"}, {"measurement": "inhibition in vivo at 200 mg/kg", "setting": "[7]", "value": 32, "unit": "%"}, {"measurement": "inhibition in vivo at 200 mg/kg", "setting": "[8]", "value": 17, "unit": "%"}, {"measurement": "fold change (FC)", "setting": "[9]", "value": 1.3}, {"measurement": "fold change (FC)", "setting": "[10]", "value": 1.1}, {"measurement": "Activity", "setting": "[11]", "value": "Active"}, {"measurement": "Activity", "setting": "[12]", "value": "tde"}, {"measurement": "inhibition in vivo at 200 mg/kg", "setting": "[13]", "value": 23, "unit": "%"}]}
{"smiles": "Fc1ccc(-c2c3nc(c(-c4ccc(F)cc4)c4ccc([nH]4)c(-c4ccc(F)cc4)c4nc(c(-c5ccc(F)cc5)c5ccc2[nH]5)C=C4)C=C3)cc1", "values": [{"measurement": "inhibition in vivo at 100 mg/kg", "setting": "[1]", "value": 20, "unit": "%"}, {"measurement": "inhibition (INH)", "setting": "[4]", "value": 38, "unit": "%"}, {"measurement": "EC50", "setting": "[2]", "value": 395, "unit": "µM"}, {"measurement": "inhibition in vivo at 200 mg/kg", "setting": "[5]", "value": 30, "unit": "%"}, {"measurement": "inhibition in vivo at 200 mg/kg", "setting": "[6]", "value": 44, "unit": "%"}, {"measurement": "inhibition in vivo at 200 mg/kg", "setting": "[7]", "value": 41, "unit": "%"}, {"measurement": "inhibition in vivo at 200 mg/kg", "setting": "[8]", "value": 20, "unit": "%"}, {"measurement": "Activity", "setting": "[11]", "value": "Active"}, {"measurement": "Activity", "setting": "[12]", "value": "tde"}, {"measurement": "inhibition in vivo at 200 mg/kg", "setting": "[13]", "value": 36, "unit": "%"}]}
{"smiles": "COc1ccc2c(c1)c(CC(=O)O)c(C)n2C(=O)c1ccc(Cl)cc1", "note": "[INDOMETHACIN]", "values": [{"measurement": "inhibition", "setting": "[14]", "value": "Dose-dependent effect"}, {"measurement": "inhibition in vivo at 8 mg/kg", "setting": "[15]", "value": 55, "unit": "%"}, {"measurement": "inhibition (INH)", "setting": "[4]", "value": 76, "unit": "%"}]}
{"smiles": "CN(Cc1cnc2nc(N)nc(N)c2n1)c1ccc(C(=O)N[C@@H](CCC(=O)O)C(=O)O)cc1", "note": "[METHOTREXATE]", "values": [{"measurement": "fold change (FC)", "setting": "[16]", "value": 2.1}, {"measurement": "inhibition in vivo at 1 mg/kg", "setting": "[17]", "value": 49, "unit": "%"}, {"measurement": "inhibition in vivo at 1 mg/kg", "setting": "[18]", "value": 66, "unit": "%"}, {"measurement": "fold change (FC)", "setting": "[19]", "value": 2.8}, {"measurement": "inhibition in vivo at 1 mg/kg", "setting": "[20]", "value": 38, "unit": "%"}, {"measurement": "inhibition in vivo at 1 mg/kg", "setting": "[21]", "value": 76, "unit": "%"}, {"measurement": "fold change (FC)", "setting": "[22]", "value": 2}, {"measurement": "Activity", "setting": "[12]", "value": "tde"}]}
